What all share (type): cell-based
Test [1] relates to human chronic myelocytic leukemia-derived K562 cells. Nature of the test: Cell growth inhibition test with K562 cells (WST-1). The following applies: 72 hours, read-out: 50% growth inhibition concentration (GI50). In short, it runs like this: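 K562 cells at 1500 cells/well in 10% FCS RPMI 1640, pre-incubated 5 h, then exposed to serially diluted compound for 72 h at 37° C, 5% CO2. Viability read by WST-1 after 2 h (absorbance 450/655 nm); GI50 reported.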
Background: Tetrazolium dyes change colour on reduction, which living cells bring about.

The subject of test [2] is human multiple myeloma-derived KMS-11 cells. Nature of the test: Cell growth inhibition test with KMS-11 cells (WST-1). The following applies: 72 hours, read-out: 50% growth inhibition concentration (GI50). The method, then: In a 96-well plate (Nunc), human multiple myeloma-derived KMS-11 cells were sown in an amount of 4000 cells/well, and pre-incubated in 10% FCS-containing RPMI 1640 (Nissui) (incubation medium) in a 5% carbon dioxide incubator at 37° C. for 24 hours. Next, a DMSO solution of a test compound controlled at 10 mmol/L was stepwise diluted with the incubation medium, and added to each well in a total amount of 100 μL/well, and further incubated in the 5% carbon dioxide incubator at 37° C. for 72 hours. After the incubation, WST-1-labeled mixture (Rosh Diagnostic) diluted 2-fold with the incubation medium was added thereto in an amount of 20 μL/well, and incubated in the 5% carbon dioxide incubator at 37° C. for 2 hours. Using a microplate spectrophotometer (Biorad's Model 550), the absorbance at 450 nm and 655 nm of each well was measured. The cell growth inhibition activity of the test compound was indicated by the 50% growth inhibition concentration (GI50) thereof, like in Test Example 2.

Test [3] concerns human mammary cancer-derived KPL-4 cells. Nature of the test: Cell growth inhibition test with KPL-4 cells (WST-1). To be noted: KPL4, 72 hours, read-out: 50% growth inhibition concentration (GI50). An outline of the steps:
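KPL-4 cells pre-incubated 24 h in 10% FCS DMEM, then exposed to serially diluted compound for 72 h at 37 °C, 5% CO2. WST-1 added for 1 h; A450 minus A655 read. GI50 relative to untreated cells.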

Bounds are passed on as bounds.

We go through 32 compounds from patent publication US7538241B2, “Hsp90 family protein inhibitors” (Kyowa Hakko Kogyo Co., Ltd., priority 2003, dated 2009).

On to `COCCc1c(C(C)=O)c(O)cc(O)c1-c1cccc(C)c1` [Compound 122, 1-[2,4-Dihydroxy-6-(2-methoxyethyl)-5-(3-methylphenyl)phenyl]ethanone], for which the GI50 in test [1], in test [2] and in test [3] was ≤ 50 µM in each case.

On to `CCc1c(O)cc(O)c(-c2cccs2)c1CCOCCO` [Compound 275, 6-Ethyl-5-[2-(2-hydroxyethoxy)ethyl]-4-(2-thienyl)benzene-1,3-diol], for which the GI50 in test [1] and in test [2] was ≤ 50 µM throughout.

For `CCc1c(O)cc(O)c(-c2cccc(C)c2)c1CC1O[C@@H](CO)[C@H](CO)O1` [Compound 229, 5-{[(4S,5S)-4,5-bis(hydroxymethyl)-1,3-dioxolan-2-yl]methyl}-6-ethyl-4-(3-methylphenyl)benzene-1,3-diol], the GI50 in test [1] and in test [2] was ≤ 50 µM each time.

With `COCCOCCc1c(C(C)=O)c(O)cc(O)c1-c1cccc(C)c1` [Compound 139, 1-{2,4-dihydroxy-6-[2-(2-methoxyethoxy)ethyl]-5-(3-methylphenyl)phenyl}ethanone], the GI50 in test [1], in test [2] and in test [3] was ≤ 50 µM throughout.

As to `CCc1cc(-c2n[nH]c3cc(OC)ccc23)c(O)cc1O` [Compound 276, 6-Ethyl-4-(6-methoxy-1H-indazol-3-yl)benzene-1,3-diol], the GI50 in test [2] and in test [3] was ≤ 50 µM each time.

In the case of `COC(=O)Cc1c(Br)c(O)cc(O)c1-c1ccc(CCC(C)=O)o1` [Compound 265, Methyl 2-bromo-3,5-dihydroxy-6-[5-(3-oxobutyl)furan-2-yl]phenylacetate], the GI50 in test [1], in test [2] and in test [3] was ≤ 50 µM throughout.

For the compound `CCc1c(O)cc(O)c(-c2cccc(OC)c2)c1CCOCCOC` [Compound 138, 6-Ethyl-5-[2-(2-methoxyethoxy)ethyl]-4-(3-methoxyphenyl)benzene-1,3-diol], the GI50 in test [1], in test [2] and in test [3] was ≤ 50 µM each time.

In the case of `CCc1c(O)cc(O)c(-c2ccccc2)c1CCOCC(O)CO` (stereo not drawn) [Compound 147, 5-[2-(2,3-Dihydroxypropoxy)ethyl]-6-ethyl-4-phenylbenzene-1,3-diol], the GI50 in test [1], in test [2] and in test [3] was ≤ 50 µM in each case.

With `CCc1c(O)cc(O)c(-c2ccc(F)c(C)c2)c1CC1O[C@@H](CO)[C@H](CO)O1` [Compound 300, 5-{[(4S,5S)-4,5-Bis(hydroxymethyl)-1,3-dioxolan-2-yl]methyl}-6-ethyl-4-(4-fluoro-3-methylphenyl)benzene-1,3-diol], the GI50 in test [1] and in test [2] was ≤ 50 µM in each case.

Take `COCCc1c(C(C)=O)c(O)cc(O)c1-c1ccccc1` [Compound 92, 1-[2,4-Dihydroxy-6-(2-methoxyethyl)-5-phenylphenyl]ethanone]: the GI50 in test [1], in test [2] and in test [3] was ≤ 50 µM throughout.

Take `COCCc1c(C(C)=O)c(O)cc(O)c1-c1cccc(OC)c1` [Compound 116, 1-[2,4-Dihydroxy-6-(2-methoxyethyl)-5-(3-methoxyphenyl)phenyl]ethanone]: the GI50 in test [1], in test [2] and in test [3] was ≤ 50 µM throughout.

Consider `CCc1c(O)cc(O)c(-c2ccccc2)c1CCCOCC(=O)NC` [Compound 159, 2-[3-(2-Ethyl-3,5-dihydroxy-6-phenylphenyl)propoxy]-N-methylacetamide], for which the GI50 in test [1], in test [2] and in test [3] was ≤ 50 µM in each case.

Consider `COCCc1c(C(C)=O)c(O)cc(O)c1-c1cccc(O)c1` [Compound 134, 1-[2,4-Dihydroxy-5-(3-hydroxyphenyl)-6-(2-methoxyethyl)phenyl]ethanone], for which the GI50 in test [1], in test [2] and in test [3] was ≤ 50 µM throughout.

As for `CCc1c(O)cc(O)c(-c2ccccc2)c1Cc1nn(CCOC)c(=O)o1` [Compound 317, 5-[(2-Ethyl-3,5-dihydroxy-6-phenylphenyl)methyl]-3-(2-methoxyethyl)-3H-1,3,4-oxadiazol-2-one], the GI50 in test [1] and in test [2] was ≤ 50 µM each time.

For the compound `CCc1c(O)cc(O)c(-c2cccc(OC)c2)c1CCOC` [Compound 118, 6-Ethyl-5-(2-methoxyethyl)-4-(3-methoxyphenyl)benzene-1,3-diol], the GI50 in test [1], in test [2] and in test [3] was ≤ 50 µM in each case.

In the case of `COCCN(C)C(=O)Cc1c(Br)c(O)cc(O)c1-c1ccccc1` [Compound 37, 2-(2-Bromo-3,5-dihydroxy-6-phenylphenyl)-N-(2-methoxyethyl)-N-methylacetamide], the GI50 in test [1] and in test [3] was ≤ 50 µM each time.

For `CCc1c(O)cc(O)c(-c2ccccc2)c1CCO` [Compound 84, 6-Ethyl-5-(2-hydroxyethyl)-4-phenylbenzene-1,3-diol], the GI50 in test [1], in test [2] and in test [3] was ≤ 50 µM throughout.

As for `CCc1c(O)cc(O)c(-c2ccccc2)c1CC(=O)OC` [Compound 52, Methyl 2-ethyl-3,5-dihydroxy-6-phenylphenylacetate], the GI50 in test [2] and in test [3] was ≤ 50 µM each time.

`CCc1c(O)cc(O)c(-c2cccc(O)c2)c1CCOC` [Compound 171, 6-Ethyl-4-(3-hydroxyphenyl)-5-(2-methoxyethyl)benzene-1,3-diol]: the GI50 in test [1] and in test [3] was ≤ 50 µM each time.

Turning to `COCCOCCc1c(C(C)=O)c(O)cc(O)c1-c1cccc(OC)c1` [Compound 137, 1-{2,4-dihydroxy-6-[2-(2-methoxyethoxy)ethyl]-5-(3-methoxyphenyl)phenyl}ethanone], the GI50 in test [1] and in test [3] was ≤ 50 µM throughout.

In the case of `CCc1c(O)cc(O)c(-c2ccco2)c1CCOCCO` [Compound 256, 6-Ethyl-4-(furan-2-yl)-5-[2-(2-hydroxyethoxy)ethyl]benzene-1,3-diol], the GI50 in test [1] and in test [2] was ≤ 50 µM in each case.

As for `CCc1c(O)cc(O)c(-c2ccccc2)c1CCCO` [Compound 123, 6-Ethyl-5-(3-hydroxypropyl)-4-phenylbenzene-1,3-diol], the GI50 in test [1] and in test [3] was ≤ 50 µM in each case.

On to `CCc1c(O)cc(O)c(-c2cccc(C)c2)c1CCOC` [Compound 130, 6-Ethyl-5-(2-methoxyethyl)-4-(3-methylphenyl)benzene-1,3-diol], for which the GI50 in test [1] and in test [3] was ≤ 50 µM each time.

On to `CCc1c(O)cc(O)c(-c2ccccc2)c1CCOCCCO` [Compound 175, 6-Ethyl-5-[2-(3-hydroxypropoxy)ethyl]-4-phenylbenzene-1,3-diol], for which the GI50 in test [1] and in test [3] was ≤ 50 µM throughout.

`CCc1c(O)cc(O)c(-c2ccccc2)c1CCc1ocnc1CO` [Compound 210, 6-Ethyl-5-[2-(4-hydroxymethyl-1,3-oxazol-5-yl)ethyl]-4-phenylbenzene-1,3-diol]: the GI50 in test [1] and in test [2] was ≤ 50 µM throughout.

Take `COC(=O)Cc1cc(O)cc(O)c1-c1ccc2ccccc2c1` [Compound 270, Methyl-3,5-dihydroxy-2-(2-naphthyl)phenylacetate]: the GI50 in test [1] and in test [3] was ≤ 50 µM throughout.

With `CCc1c(O)cc(O)c(-c2ccccc2)c1CCCOCCOC` [Compound 146, 6-Ethyl-5-[3-(2-methoxyethoxy)propyl]-4-phenylbenzene-1,3-diol], the GI50 in test [1] and in test [3] was ≤ 50 µM in each case.

Consider `CCc1c(O)cc(O)c(-c2ccccc2)c1CCCOC(CO)CO` [Compound 163, 5-{3-[Bis(hydroxymethyl)methoxy]propyl}-6-ethyl-4-phenylbenzene-1,3-diol], for which the GI50 in test [1] and in test [3] was ≤ 50 µM in each case.

Take `COCCOCCc1c(C(C)=O)c(O)cc(O)c1-c1ccccc1` [Compound 136, 1-[2,4-Dihydroxy-6-[2-(2-methoxyethoxy)ethyl]-5-phenylphenyl)ethanone]: the GI50 in test [1] and in test [3] was ≤ 50 µM throughout.

Consider `CCc1c(O)cc(O)c(-c2ccccc2)c1CCOCC(=O)NC` [Compound 156, 2-[2-(2-Ethyl-3,5-dihydroxy-6-phenylphenyl)ethoxy]-N-methylacetamide], for which the GI50 in test [1] and in test [3] was ≤ 50 µM each time.

`CCc1c(O)cc(O)c(-c2cccc(C)c2)c1CCOCCOC` [Compound 149, 6-Ethyl-5-[2-(2-methoxyethoxy)ethyl]-4-(3-methylphenyl)benzene-1,3-diol]: the GI50 in test [1] and in test [3] was ≤ 50 µM throughout.

For `CCc1c(O)cc(O)c(-c2ccccc2)c1CCCOCC(O)CO` (stereo not drawn) [Compound 148, 5-[3-(2,3-Dihydroxypropoxy)propyl]-6-ethyl-4-phenylbenzene-1,3-diol], the GI50 in test [1] and in test [3] was ≤ 50 µM each time.
